# Patent US20240228463A1, “SODIUM CHANNEL INHIBITORS AND METHODS OF DESIGNING SAME” (Genentech, Inc., priority 2021, published 2024)
# pIC50: −log10 of the molar value. Counter-ions that a name gives are not always drawn.
# Biological target: T1, hNaV1.7 (Homo sapiens, UniProt Q15858)
# T1 construct: expressed in transfected cells
# Experiment: Patch voltage clamp electrophysiology (EP), Syncropatch 384PE, Nav1.7 in CHO cells;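 note: Nav1.7 stably expressed from cDNA in CHO cells, holding potential of −50 mV kept for the entire experiment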
# Type: cell-based
# Details: holding potential −50 mV, inhibition based on 7.5 min compound incubation, read-out: hNaV1.7 EP_SP
# T1 sequence (Q15858 1-1977 isoform Q15858-3): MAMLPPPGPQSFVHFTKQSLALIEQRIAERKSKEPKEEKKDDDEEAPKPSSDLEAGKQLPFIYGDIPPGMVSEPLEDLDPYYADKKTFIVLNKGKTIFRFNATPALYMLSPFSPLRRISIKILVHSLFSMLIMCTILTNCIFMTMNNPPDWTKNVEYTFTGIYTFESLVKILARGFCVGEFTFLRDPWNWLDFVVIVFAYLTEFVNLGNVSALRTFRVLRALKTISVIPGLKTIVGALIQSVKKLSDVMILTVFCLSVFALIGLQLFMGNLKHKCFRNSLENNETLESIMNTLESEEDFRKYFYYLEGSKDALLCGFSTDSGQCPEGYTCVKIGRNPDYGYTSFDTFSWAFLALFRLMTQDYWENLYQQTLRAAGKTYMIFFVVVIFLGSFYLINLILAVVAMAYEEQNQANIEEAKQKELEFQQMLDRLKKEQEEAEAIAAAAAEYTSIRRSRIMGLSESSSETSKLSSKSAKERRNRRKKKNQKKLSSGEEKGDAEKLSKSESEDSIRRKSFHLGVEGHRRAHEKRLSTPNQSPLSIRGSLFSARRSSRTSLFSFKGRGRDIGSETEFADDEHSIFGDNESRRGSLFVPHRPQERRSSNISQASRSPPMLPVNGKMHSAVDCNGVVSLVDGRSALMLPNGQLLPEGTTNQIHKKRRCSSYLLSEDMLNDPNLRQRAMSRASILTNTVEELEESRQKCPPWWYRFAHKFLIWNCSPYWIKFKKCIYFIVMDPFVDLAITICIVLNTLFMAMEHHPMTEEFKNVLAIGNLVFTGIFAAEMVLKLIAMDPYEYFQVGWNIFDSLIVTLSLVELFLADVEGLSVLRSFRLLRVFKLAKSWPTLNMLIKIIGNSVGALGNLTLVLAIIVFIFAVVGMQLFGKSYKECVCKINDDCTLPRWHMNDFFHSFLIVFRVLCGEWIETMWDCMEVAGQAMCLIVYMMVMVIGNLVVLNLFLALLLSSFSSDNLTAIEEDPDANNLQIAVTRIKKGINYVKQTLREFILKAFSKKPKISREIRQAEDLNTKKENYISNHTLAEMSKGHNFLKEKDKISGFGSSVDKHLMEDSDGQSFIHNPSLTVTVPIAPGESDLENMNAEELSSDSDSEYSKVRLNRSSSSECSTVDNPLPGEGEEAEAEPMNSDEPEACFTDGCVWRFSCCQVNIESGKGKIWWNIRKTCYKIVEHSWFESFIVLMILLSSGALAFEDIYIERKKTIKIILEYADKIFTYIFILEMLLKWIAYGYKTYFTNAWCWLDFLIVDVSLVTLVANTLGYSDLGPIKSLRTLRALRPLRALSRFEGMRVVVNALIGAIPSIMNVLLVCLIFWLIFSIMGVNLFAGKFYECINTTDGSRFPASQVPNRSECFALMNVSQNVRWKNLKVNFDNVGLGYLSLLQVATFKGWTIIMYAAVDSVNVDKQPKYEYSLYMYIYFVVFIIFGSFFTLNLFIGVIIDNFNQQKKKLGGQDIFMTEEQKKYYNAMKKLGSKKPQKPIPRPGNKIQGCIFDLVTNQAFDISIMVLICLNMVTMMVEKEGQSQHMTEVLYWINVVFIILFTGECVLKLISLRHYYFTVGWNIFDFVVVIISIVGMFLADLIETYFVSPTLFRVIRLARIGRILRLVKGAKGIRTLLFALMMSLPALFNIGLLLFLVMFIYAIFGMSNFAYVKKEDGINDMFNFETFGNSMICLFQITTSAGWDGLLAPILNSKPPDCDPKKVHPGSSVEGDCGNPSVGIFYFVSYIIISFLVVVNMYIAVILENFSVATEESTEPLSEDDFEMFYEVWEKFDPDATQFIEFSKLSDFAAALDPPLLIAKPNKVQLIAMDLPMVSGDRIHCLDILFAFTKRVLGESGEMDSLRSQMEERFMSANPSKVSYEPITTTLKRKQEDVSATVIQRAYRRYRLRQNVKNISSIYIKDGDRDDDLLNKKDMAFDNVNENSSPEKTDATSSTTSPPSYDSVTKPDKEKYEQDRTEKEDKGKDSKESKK
row,Structure (SMILES),pIC50
1,"O=C(NS(=O)(=O)[C@@H]1C[C@H]1c1ccccc1)c1cc(Cl)c(OCC2CCCC2)cc1F (relative stereo) [Example 284, 5-chloro-4-(cyclopentylmethoxy)-2-fluoro-N-((trans-2-phenylcyclopropyl)sulfonyl)benzamide]",6.92
2,"COc1cc(COc2ccc(S(=O)(=O)NC(=O)c3cc(Cl)c(OCC4CCCC4)cc3F)cc2)cc(OC)c1 [Example 306, 5-chloro-4-(cyclopentylmethoxy)-N-((4-((3,5-dimethoxy-benzyl)oxy)phenyl)sulfonyl)-2-fluorobenzamide]",6.77
3,"COc1ccc(S(=O)(=O)NC(=O)c2cc(Cl)c(OCC3CCCC3)cc2F)cc1 [Example 81, 5-chloro-4-(cyclopentylmethoxy)-2-fluoro-N-((4-methoxyphenyl)sulfonyl)-benzamide]",6.85
4,"Cc1ccccc1S(=O)(=O)NC(=O)c1cc(Cl)c(OCC2CCCC2)cc1F [Example 242, 5-chloro-4-(cyclopentylmethoxy)-2-fluoro-N-(o-tolylsulfonyl)benzamide]",6.96
5,"CN1CC(OC2CCN(S(=O)(=O)NC(=O)c3cc(C4CC4)c(OCC4CC4)cc3F)CC2)C1 [Example 9, 5-cyclopropyl-4-(cyclopropylmethoxy)-2-fluoro-N-((4-((1-methylazetidin-3-yl)oxy)piperidin-1-yl)sulfonyl)benzamide]",7.23
6,"O=C(NS(=O)(=O)N1CCC(OC2CCNCC2)CC1)c1cc(Cl)c(OCC2CCCC2)cc1F [Example 53, 5-chloro-4-(cyclopentylmethoxy)-2-fluoro-N-((4-(piperidin-4-yloxy)piperidin-1-yl)sulfonyl) benzamide]",6.60
7,"O=C(NS(=O)(=O)N1CC[C@H](OC2CCNCC2)C1)c1cc(Cl)c(OCC2CCCC2)cc1F (single isomer, unassigned) [Example 212]",7.06
8,"CO[C@H]1CC[C@@H](S(=O)(=O)NC(=O)c2cc(Cl)c(OCC3CCCC3)cc2F)CC1 [Example 87, cis-5-chloro-4-(cyclopentylmethoxy)-2-fluoro-N-((4-methoxycyclohexyl)sulfonyl)benzamide]",6.41
9,"COc1cccc(COc2ccc(S(=O)(=O)NC(=O)c3cc(Cl)c(OCC4CCCC4)cc3F)cc2)c1 [Example 308, 5-chloro-4-(cyclopentylmethoxy)-2-fluoro-N-((4-((3-methoxybenzyl)oxy)phenyl)sulfonyl)benzamide]",7.00
10,"O=C(NS(=O)(=O)c1ccc(OCc2ccccc2Cl)cc1)c1cc(Cl)c(OCC2CCCC2)cc1F [Example 264, 5-chloro-N-((4-((2-chlorobenzyl)oxy)phenyl)sulfonyl)-4-(cyclopentylmethoxy)-2-fluorobenzamide]",7.08
11,C[C@H]1CCc2ccccc2N1S(=O)(=O)NC(=O)c1cc(Cl)c(OCC2CCCC2)cc1F [(S) enantiomer of Example 18],6.30
12,"CN1CCCC(OC2CCN(S(=O)(=O)NC(=O)c3cc(Cl)c(OCC4CCCC4)cc3F)CC2)C1 (stereo not drawn) [Example 52, 5-chloro-4-(cyclopentylmethoxy)-2-fluoro-N-((4-((1-methylpiperidin-3-yl)oxy)piperidin-1-yl)sulfonyl) benzamide]",6.77
13,"O=C(NS(=O)(=O)c1ccccc1)c1cc(Cl)c(OCC2CCCC2)cc1F [Example 78, 5-chloro-4-(cyclopentylmethoxy)-2-fluoro-N-(phenylsulfonyl)benzamide]",7.00
14,"CN1CC(OC2CCN(S(=O)(=O)NC(=O)c3cc(Cl)c(OCC4CCCC4)cc3F)CC2)C1 [Example 1, 5-chloro-4-(cyclopentylmethoxy)-2-fluoro-N-((4-((1-methylazetidin-3-yl)oxy)piperidin-1-yl)sulfonyl)benzamide]",6.96
15,"CCOc1ccc(S(=O)(=O)NC(=O)c2cc(Cl)c(OCC3CCCC3)cc2F)cn1 [Example 285, 5-chloro-4-(cyclopentylmethoxy)-N-((6-ethoxypyridin-3-yl)sulfonyl)-2-fluorobenzamide]",6.46
16,"C[C@@H]1CCCCN1S(=O)(=O)NC(=O)c1cc(Cl)c(OCC2CCCC2)cc1F (single isomer, unassigned) [Example 225]",8.00
17,"O=C(NS(=O)(=O)CC1Cc2ccccc2C1)c1cc(Cl)c(OCC2CCCC2)cc1F [Example 266, 5-chloro-4-(cyclopentylmethoxy)-N-(((2,3-dihydro-1H-inden-2-yl)methyl)sulfonyl)-2-fluorobenzamide]",6.89
18,"CNC[C@@H]1CN(S(=O)(=O)NC(=O)c2cc(Cl)c(OCC3CCCC3)cc2F)CCO1 (single isomer, unassigned) [Example 26]",6.72
19,"O=C(NS(=O)(=O)c1ccc(OCc2ccccc2)cc1F)c1cc(C2CC2)c(OCC2CCCC2)cc1F [Example 70, N-((4-(benzyloxy)-2-fluorophenyl)sulfonyl)-4-(cyclopentylmethoxy)-5-cyclopropyl-2-fluorobenzamide]",7.22
20,"CN(C)[C@H]1CCCC[C@@H]1Oc1ccc(S(=O)(=O)Nc2nc3ccc(OCC4CCCC4)cc3s2)c(F)c1 [Example 97, N-(6-(cyclopentylmethoxy)benzo[d]thiazol-2-yl)-4-(((1S,2S)-2-(dimethyl-amino)cyclohexyl)oxy)-2-fluorobenzenesulfonamide]",7.70

row,Structure (SMILES),pIC50
1,"O=C(NS(=O)(=O)N1CC[C@H]2CCC[C@@H]21)c1cc(Cl)c(OCC2CCCC2)cc1F (single isomer, unassigned) [Example 221]",7.80
2,"O=C(N[C@@H](C(=O)O)C1CCCCC1)c1cc(Cl)c(OCC2CCCC2)cc1F [Example 107, (R)-2-(5-chloro-4-(cyclopentylmethoxy)-2-fluorobenzamido)-2-cyclohexyl-acetic acid]",6.00
3,"O=C(NS(=O)(=O)N1CC[C@@H]2CCC[C@H]21)c1cc(Cl)c(OCC2CCCC2)cc1F (single isomer, unassigned) [Example 220]",7.85
4,"O=C(NS(=O)(=O)c1ccc(OCc2ccc(F)cc2)cc1)c1cc(Cl)c(OCC2CCCC2)cc1F [Example 319, 5-chloro-4-(cyclopentylmethoxy)-2-fluoro-N-((4-((4-fluorobenzyl)oxy)phenyl)sulfonyl)benzamide]",6.96
5,"O=C(NS(=O)(=O)c1ccc(OCc2cncnc2)cc1)c1cc(Cl)c(OCC2CCCC2)cc1F [Example 304, 5-chloro-4-(cyclopentylmethoxy)-2-fluoro-N-((4-(pyrimidin-5-ylmethoxy)phenyl)sulfonyl)benzamide]",6.24
6,"O=C(NS(=O)(=O)c1ccc(Oc2ccc(Cl)cc2)cc1)c1cc(Cl)c(OCC2CCCC2)cc1F [Example 288, 5-chloro-N-((4-(4-chlorophenoxy)phenyl)sulfonyl)-4-(cyclopentylmethoxy)-2-fluorobenzamide]",6.31
7,"CN(C)[C@H]1CCCC[C@@H]1Nc1ccc(S(=O)(=O)NC(=O)c2cc(Cl)c(OCC3CCCC3)cc2F)cc1 [Example 64, 5-chloro-4-(cyclopentylmethoxy)-N-((4-(((1S,2S)-2-(dimethylamino)-cyclohexyl)amino)phenyl)sulfonyl)-2-fluorobenzamide formate]",6.54
8,"CN(C)[C@H]1CCCC[C@@H]1Nc1cc(F)c(S(=O)(=O)NC(=O)c2cc(Cl)c(OCC3CCCC3)cc2F)c(F)c1 [Example 206, 5-chloro-4-(cyclopentylmethoxy)-N-((4-(((1S,2S)-2-(dimethylamino)-cyclohexyl)amino)-2,6-difluorophenyl)sulfonyl)-2-fluorobenzamide]",7.30
9,"NC[C@@H]1CCN(S(=O)(=O)NC(=O)c2cc(Cl)c(OCC3CCCC3)cc2F)C1 [Example 232, (S)—N-((3-(aminomethyl)pyrrolidin-1-yl)sulfonyl)-5-chloro-4-(cyclopentylmethoxy)-2-fluorobenzamide 2,2,2-trifluoroacetate]",6.06
10,"C[C@@H]1CCCN1S(=O)(=O)NC(=O)c1cc(Cl)c(OCC2CCCC2)cc1F (single isomer, unassigned) [Example 222]",7.48
11,"O=C(NS(=O)(=O)N1CCCc2cccnc21)c1cc(Cl)c(OCC2CCCC2)cc1F [Example 15, 5-chloro-4-(cyclopentylmethoxy)-N-((3,4-dihydro-1,8-naphthyridin-1(2H)-yl)sulfonyl)-2-fluorobenzamide]",6.96
12,"COc1ccc(F)cc1-c1nccc2cc(S(=O)(=O)NC(=O)c3cc(Cl)c(OCC4CCCC4)cc3F)ccc12 [Example 72, 5-chloro-4-(cyclopentylmethoxy)-2-fluoro-N-((1-(5-fluoro-2-methoxy-phenyl)isoquinolin-6-yl)sulfonyl)benzamide]",6.47
13,"O=S(=O)(Nc1noc2cc(OCC3CCCC3)c(Cl)cc12)N1CCC(O[C@H]2CCNC2)CC1 (single isomer, unassigned) [Example 90, 2,2,2-trifluoroacetate]",6.40
14,"CN(C)[C@H]1CCCC[C@@H]1Oc1ccc(S(=O)(=O)Nc2nc3cccc(Cl)c3s2)c(F)c1 [Example 99, N-(7-chlorobenzo[d]thiazol-2-yl)-4-(((1S,2S)-2-(dimethylamino)cyclohexyl)-oxy)-2-fluorobenzenesulfonamide]",6.37
15,"O=C(NS(=O)(=O)N1C[C@@H]2CC[C@@H](C2)C1)c1cc(Cl)c(OCC2CCCC2)cc1F [Example 230, N-(((1R,5S)-3-azabicyclo[3.2.1]octan-3-yl)sulfonyl)-5-chloro-4-(cyclopentylmethoxy)-2-fluorobenzamide]",7.20
16,"O=C(NS(=O)(=O)C1CCNC1)c1cc(Cl)c(OCC2CCCC2)cc1F (stereo not drawn) [Example 322, 5-chloro-4-(cyclopentylmethoxy)-2-fluoro-N-(pyrrolidin-3-ylsulfonyl)-benzamide]",6.29
17,"N[C@@]12C[C@@H]1CN(S(=O)(=O)NC(=O)c1cc(Cl)c(OCC3CCCC3)cc1F)C2 (single isomer, unassigned) [Example 218, 2,2,2-trifluoroacetate]",6.25
18,"O=C(NS(=O)(=O)N1CCC(O[C@@H]2CCNC2)CC1)c1cc(C2CC2)c(OCC2CCCC2)cc1F (single isomer, unassigned) [Example 29, 2,2,2-trifluoroacetate]",7.57
19,"NCC1CN(S(=O)(=O)NC(=O)c2cc(C3CC3)c(OCC3CCCC3)cc2F)CCO1 (stereo not drawn) [Example 330, N-((2-(aminomethyl)morpholino)sulfonyl)-4-(cyclopentylmethoxy)-5-cyclopropyl-2-fluorobenzamide]",6.21
